Laboratory results from PubChem BioAssay (NCI).
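48-hour exposure; five concentrations; linearly interpolated endpoints. TGI denotes the concentration required for complete inhibition of growth.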 Where a SMILES comes first, the peptide text is derived from it. [ ]: non-standard residue; d: D form.

Tests used:
Assay in all cases: NCI tumour cell line growth inhibition, 48 h
[1] = system: HOP-92 NSCLC
[2] = system: OVCAR-4 ovarian
[3] = system: A498 renal
[4] = system: UACC-257 melanoma
[5] = system: HT29 colon
[6] = system: NCI-H226 lung
[7] = system: SK-OV-3 ovarian
[8] = system: SNB-75 CNS
[9] = system: SR leukemia
[10] = system: LOX IMVI melanoma
[11] = system: NCI-H460 lung
[12] = system: HCT-15 colon
[13] = system: ACHN renal
[14] = system: RPMI-8226 leukemia
[15] = system: NCI-H522 lung
[16] = system: HOP-18 NSCLC
[17] = system: KM20L2 colon
[18] = system: DMS 273 small cell lung
[19] = system: M19-MEL melanoma
[20] = system: SNB-78 CNS

SMILES	TGI [1]	TGI [2]	TGI [3]	TGI [4]	TGI [5]	TGI [6]	TGI [7]	TGI [8]	TGI [9]	TGI [10]	TGI [11]	TGI [12]	TGI [13]	TGI [14]	TGI [15]	TGI [16]	TGI [17]	TGI [18]	TGI [19]	TGI [20]
O=c1oc2cc(O)ccc2c(O)c1Cc1c(O)c2ccc(O)cc2oc1=O	> 100 µM	> 100 µM	> 100 µM	> 100 µM	> 100 µM	> 100 µM	> 100 µM	> 100 µM	> 100 µM	> 100 µM	> 100 µM	> 100 µM								
O=c1cc(-c2ccccc2)[nH]c2nccn12		> 10 µM	> 10 µM		> 10 µM	> 10 µM	> 10 µM	> 10 µM	> 10 µM	> 10 µM	> 10 µM	> 10 µM	> 10 µM	> 10 µM	> 10 µM					
Cc1ccc2c(=O)c3ccccc3sc2c1		> 100 µM			> 100 µM	> 100 µM	> 100 µM		> 100 µM	> 100 µM	> 100 µM		> 100 µM	> 100 µM	> 100 µM	> 100 µM	> 100 µM	> 100 µM	> 100 µM	
CC(=O)Nc1cccc(N=NN(C)C)c1	> 100 µM	> 100 µM	> 100 µM	> 100 µM	> 100 µM	> 100 µM	> 100 µM	> 100 µM		> 100 µM	> 100 µM	> 100 µM		> 100 µM	> 100 µM	> 100 µM	> 100 µM	> 100 µM	> 100 µM	> 100 µM
CCn1cnnc1-c1nsc2ccccc12	> 100 µM	> 100 µM		> 100 µM	> 100 µM			41.8 µM	> 100 µM	> 100 µM	> 100 µM	> 100 µM	> 100 µM	> 100 µM		> 100 µM	> 100 µM	> 100 µM	> 100 µM	> 100 µM
CCC1NC(N=Nc2ccc([N+](=O)[O-])cc2)(P(=O)(OC(C)C)OC(C)C)OC1=O (stereo not given)	> 100 µM	> 100 µM	> 100 µM	> 100 µM	> 100 µM		> 100 µM	97.4 µM	> 100 µM				> 100 µM	> 100 µM	> 100 µM		> 100 µM	> 100 µM	> 100 µM	> 100 µM
CC(C)NC(=O)OCc1c2c(n(C)c1COC(=O)NC(C)C)-c1ccccc1CC2	22.2 µM	34.5 µM	61.7 µM	29.7 µM	30.3 µM	31.4 µM	42.6 µM	29.4 µM		16.9 µM	28.8 µM	27.2 µM		17.3 µM	18.1 µM	13.9 µM	28 µM	27.3 µM	23 µM	72 µM
O=C(O)C1CCCCN1c1ccccc1[N+](=O)[O-] (stereo not given)	> 100 µM	> 100 µM		> 100 µM	> 100 µM	> 100 µM	> 100 µM	> 100 µM	> 100 µM	> 100 µM	> 100 µM	> 100 µM	> 100 µM	> 100 µM	> 100 µM	> 100 µM	> 100 µM	> 100 µM	> 100 µM	> 100 µM
CC1=CC2c3cccc4[nH]cc(c34)CC2N(C)C1 (stereo not given)	> 80.7 µM	> 100 µM	> 100 µM	> 100 µM	> 100 µM	> 100 µM	> 100 µM	> 82.4 µM		> 100 µM	> 100 µM	> 100 µM		> 100 µM	> 100 µM	82.4 µM	> 100 µM	> 100 µM	> 100 µM	> 100 µM
CN(Cc1cnc2c(N)nc(N)nc2n1)c1ccc(Cl)cc1			98.5 µM	> 100 µM		32.5 µM	> 100 µM	29.6 µM	> 100 µM		> 100 µM	> 100 µM	> 100 µM	> 100 µM						
CC(C)C[C@H](NC(=O)[C@H](CC(C)C)NC(=O)[C@@H](Cc1c[nH]c2ccccc12)NC(=O)[C@H](Cc1ccccc1)NC(=O)[C@@H](Cc1c[nH]c2ccccc12)NC(=O)[C@H](CCC(N)=O)NC(=O)[C@H](CCC(N)=O)NC(=O)[C@H]1CCCN1C(=O)[C@@H](N)CCCCN)C(N)=O (H-K[dP]QQ[dW]F[dW]LL-NH2)	> 100 µM	> 100 µM	> 100 µM	> 100 µM	> 100 µM	> 100 µM	> 100 µM	> 100 µM		> 100 µM	> 100 µM	> 100 µM		> 100 µM	> 100 µM	> 100 µM	> 100 µM	> 100 µM	> 100 µM	> 100 µM
O=[N+]([O-])c1ccc(NNN=Nc2ccc(-c3nc4ccccc4s3)cc2)c([N+](=O)[O-])c1	52.7 µM	> 100 µM	20.5 µM	36 µM	41.3 µM	69.4 µM	> 100 µM	82.1 µM	90.1 µM	32.7 µM	56.3 µM	66.4 µM	57.3 µM		70.9 µM					
